Here are results for 26 compounds from patent US20120095055A1, “HEXAHYDROCYCLOPENTYL[f]INDAZOLE 5-HYDROXYMETHYL ETHANOLS AND DERIVATIVES THEREOF AS SELECTIVE GLUCOCORTICOID RECEPTOR MODULATORS” (Merck Sharp & Dohme, Corp., priority 2009, published 2012).

This test deals with T1, human GR (Homo sapiens, UniProt P04150).
T1 construct: naturally expresses the human GR; endogenous in cells
T1 sequence (P04150 1-777): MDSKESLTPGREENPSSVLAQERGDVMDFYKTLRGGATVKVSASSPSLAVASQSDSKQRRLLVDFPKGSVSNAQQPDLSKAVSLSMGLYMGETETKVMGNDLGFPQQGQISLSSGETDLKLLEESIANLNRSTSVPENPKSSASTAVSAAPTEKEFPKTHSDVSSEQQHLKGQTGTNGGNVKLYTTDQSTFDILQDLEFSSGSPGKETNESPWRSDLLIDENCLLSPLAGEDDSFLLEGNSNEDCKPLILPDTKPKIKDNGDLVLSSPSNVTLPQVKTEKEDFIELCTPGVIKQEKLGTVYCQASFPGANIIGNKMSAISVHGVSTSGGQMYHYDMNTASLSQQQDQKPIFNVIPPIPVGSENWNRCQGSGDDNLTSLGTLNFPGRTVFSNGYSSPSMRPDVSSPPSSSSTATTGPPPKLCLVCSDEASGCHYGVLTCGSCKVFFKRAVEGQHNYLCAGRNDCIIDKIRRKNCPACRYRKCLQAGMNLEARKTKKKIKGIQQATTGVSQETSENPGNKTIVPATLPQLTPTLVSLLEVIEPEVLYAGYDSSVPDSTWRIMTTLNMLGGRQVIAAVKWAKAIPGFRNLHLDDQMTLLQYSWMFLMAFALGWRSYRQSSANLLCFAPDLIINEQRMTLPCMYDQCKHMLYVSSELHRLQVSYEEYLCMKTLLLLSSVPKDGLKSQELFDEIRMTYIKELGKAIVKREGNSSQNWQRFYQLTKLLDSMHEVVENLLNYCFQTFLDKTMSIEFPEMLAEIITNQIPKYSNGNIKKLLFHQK
As to the kind of experiment: Trans-Activation Modulation of Glucocorticoid Receptor Assay (GRAMMER), MMTV-LUC reporter in A549 cells. The settings on record: for Emax: A549, Emax relative to the activity obtained with 300 nM dexamethasone, read-out: Transactivation A549 Cells GRAMMER Emax (%); for pEC50: inflection point (IP), MMTV-LUC reporter, read-out: Transactivation A549 Cells GRAMMER IP; for Transactivation A549 Cells GRAMMER Emax (%): Emax relative to the activity obtained with 300 nM dexamethasone. Type of test: cell-based. An excerpt:
This assay assesses the ability of test compounds to control transcription from the MMTV-LUC reporter gene in lung adenocarcinoma A549 cells or HeLa cells, a human […] cell line that naturally expresses the human GR. The assay measures induction of a modified MMTV LTR/promoter linked to the LUC reporter gene.
The routine transient assay consists of plating 7,000-25,000 cells/well of a white, clear-bottom 96-well plate. Alternatively, 384-well plates can be used at a cell concentration of 10,000/well. The media that the cells are plated in is “exponential growth medium” which consists of phenol red-free RPMI1640 containing 10% FBS, 4 mM L-glutamine, 20 mM HEPES, 10 ug/mL human insulin, and 20 ug/mL gentamicin. Incubator conditions are 37° C. and 5% CO2. The transfection is done in batch mode. The cells are trypsinized and counted to the right cell number in the proper amount of fresh media. It is then gently mixed with the FuGene6/DNA mix and plated onto the 96 or 384-well plate, all the wells receive 100 uL or 40 uL, respectively, of medium+lipid/DNA complex then incubated 37° C. overnight. The transfection cocktail consists of serum-free OptiMEM, FuGene6 reagent and DNA. The manufacturer's (Roche Biochemical) protocol for cocktail setup is as follows: The lipid to DNA ratio is approximately 2.5:1 and the incubation time is 20 min at room temperature. Sixteen to 24 hours after transfection, the cells are treated with dexamethasone to a final concentration of 10 nM as well as the compound of interest, such that final DMSO (vehicle) concentration is equal to or less than 1%. Each plate also contains samples that are treated with 10 nM dexamethasone alone, which is used as the 100% activity control. The cells are exposed to the compounds for 24 hours. After 24 hours, the cells are lysed by a Promega cell culture lysis buffer for approximately 30 min and then the luciferase activity in the extracts is assayed in the 96-well format luminometer. In 384-well format, Steady-Glo (Promega) or Steady-Lite (PerkinElmer) can be used by adding an equal volume of reagent to the media present in each well. Activity induced by 10 nM dexamethasone alone is set at 100% activity. Antagonist activity is calculated by determining the decrease in dexamethasone-induced activity in response to compound treatment relative to samples that were treated with dexamethasone alone. Results are expressed as % inhibition of 10 nM dexamethasone activity or as fold of 10 nM dexamethasone activity. This transactivation assay can be performed in an agonist and antagonist mode to identify these different activities.
Activity of test compounds is calculated as the Emax relative to the activity obtained with 300 nM dexamethasone. Activity of test compounds is calculated as the Emax relative to the activity obtained with 300 nM DEX. The exemplified tissue selective glucocorticoid receptor modulators of the present invention display agonist activity in this assay of greater than 5% and less than 100%, and maximal transactivation activity less then maximal transrepression activity. […]

SMILES strings stand for the structures. pEC50: −log10 of the molar value.

`Cc1ccc(C(O)C[C@]2(CO)CCC3=Cc4c(cnn4-c4ccc(F)cc4)C[C@@]32C)cc1` (single isomer, unassigned) [Example 2b]: the Emax is 45.5% and the pEC50 is 6.50.

For the compound `C[C@]12Cc3cnn(-c4ccc(F)cc4)c3C=C1CC[C@@]2(CO)CC(O)c1ccc(F)cn1` (single isomer, unassigned) [Example 22b], the “Transactivation A549 Cells GRAMMER Emax (%)” value was 74.3% and the pEC50 was 7.19.

Turning to `C[C@]12Cc3cnn(-c4ccc(F)cc4)c3C=C1CC[C@@]2(CO)CC(O)c1ccc(F)cn1` (single isomer, unassigned) [Example 22a], the Emax was found to be 63.2% and the pEC50 was 7.54.

Consider `C[C@]12Cc3cnn(-c4ccc(F)cc4)c3C=C1CC[C@@]2(CO)CC(O)c1cccnc1` (single isomer, unassigned) [Example 15a], for which the Emax turned out to be 52.7% and the pEC50 was 7.17.

With `C[C@]12Cc3cnn(-c4ccc(F)cc4)c3C=C1CC[C@@]2(CO)CC(O)c1ncccc1F` (single isomer, unassigned) [Example 10a], the Emax was determined as 56.6% and the pEC50 is 7.63.

Turning to `COc1ccc(C(O)C[C@]2(CO)CCC3=Cc4c(cnn4-c4ccc(F)cc4)C[C@@]32C)nc1` (single isomer, unassigned) [Example 24b], the “Transactivation A549 Cells GRAMMER Emax (%)” value turned out to be 4.5% and the pEC50 is 6.00.

Take `C[C@]12Cc3cnn(-c4ccc(F)cc4)c3C=C1CC[C@@]2(CO)CC(O)C(F)(F)F` (single isomer, unassigned) [Example 28b]: the “Transactivation A549 Cells GRAMMER Emax (%)” value worked out at 42.3% and the pEC50 was 6.97.

Take `C[C@]12Cc3cnn(-c4ccccc4)c3C=C1CC[C@@]2(CO)CC(O)c1ccccn1` (single isomer, unassigned) [Example 23b]: the “Transactivation A549 Cells GRAMMER Emax (%)” value turned out to be 47.7% and the pEC50 is 7.20.

Turning to `Cc1cccc(C(O)C[C@]2(CO)CCC3=Cc4c(cnn4-c4ccc(F)cc4)C[C@@]32C)c1` (single isomer, unassigned) [Example 5a], the Emax was determined as 65.5% and the pEC50 is 7.10.

As to `C[C@]12Cc3cnn(-c4ccc(F)cc4)c3C=C1CC[C@@]2(CO)CC(O)c1cccc(C(F)(F)F)c1` (single isomer, unassigned) [Example 7a], the Emax was 60.2% and the pEC50 was 7.23.

With `C[C@]12Cc3cnn(-c4ccc(F)cc4)c3C=C1CC[C@@]2(CO)CC(O)c1ncccc1F` (single isomer, unassigned) [Example 10b], the “Transactivation A549 Cells GRAMMER Emax (%)” value came to 67.0% and the pEC50 was 7.91.

Turning to `CC(C)C(O)C[C@]1(CO)CCC2=Cc3c(cnn3-c3ccc(F)cc3)C[C@@]21C` (single isomer, unassigned) [Example 14b], the “Transactivation A549 Cells GRAMMER Emax (%)” value came to 32.6% and the pEC50 is 6.69.

`C[C@]12Cc3cnn(-c4ccc(F)cc4)c3C=C1CC[C@@]2(CO)CC(O)c1ccccc1` (single isomer, unassigned) [Example 13b]: the “Transactivation A549 Cells GRAMMER Emax (%)” value is 57.5% and the pEC50 was 8.14.

For `C[C@]12Cc3cnn(-c4ccc(F)cc4)c3C=C1CC[C@@]2(CO)CC(O)C1CC1` (single isomer, unassigned) [Example 20b, 1-cyclopropyl-2-[(4αS)-1-(4-fluorophenyl)-5-(hydroxymethyl)-4α-methyl-1,4,4α,5,6,7-hexahydrocyclopenta[f]indazol-5-yl]ethanol], the “Transactivation A549 Cells GRAMMER Emax (%)” value is 11.3% and the pEC50 is 6.09.

Consider `C[C@]12Cc3cnn(-c4ccc(F)cc4)c3C=C1CC[C@@]2(CO)CC(O)c1ccccc1F` (stereo partly drawn) [Example 4, 1-(2-fluorophenyl)-2-[(4αS,5R)-1-(4-fluorophenyl)-5-(hydroxymethyl)-4α-methyl-1,4,4α,5,6,7-hexahydrocyclopenta[f]indazol-5-yl]ethanol], for which the maximal response (Emax) amounted to 80.3% and the pEC50 is 7.40.

For the compound `COc1cccnc1C(O)C[C@]1(CO)CCC2=Cc3c(cnn3-c3ccc(F)cc3)C[C@@]21C` (single isomer, unassigned) [Example 21a], the “Transactivation A549 Cells GRAMMER Emax (%)” value was 32.4% and the pEC50 was 6.82.

Take `C[C@]12Cc3cnn(-c4ccccc4)c3C=C1CC[C@@]2(CO)CC(O)c1cccnc1` (single isomer, unassigned) [Example 29b]: the “Transactivation A549 Cells GRAMMER Emax (%)” value was determined as 13.7% and the pEC50 was 6.92.

Turning to `C[C@]12Cc3cnn(-c4ccc(F)cc4)c3C=C1CC[C@@]2(CO)CC(O)c1cccnc1` (single isomer, unassigned) [Example 15b], the “Transactivation A549 Cells GRAMMER Emax (%)” value was found to be 39.3% and the pEC50 is 6.83.

Turning to `C[C@]12Cc3cnn(-c4ccc(F)cc4)c3C=C1CC[C@@]2(CO)CC(O)c1ccccc1` (single isomer, unassigned) [Example 13a], the maximal response (Emax) came to 73.1% and the pEC50 was 8.06.

On to `C[C@]12Cc3cnn(-c4ccc(F)cc4)c3C=C1CC[C@@]2(CO)CC(O)c1ccccc1Cl` (single isomer, unassigned) [Example 3b], for which the “Transactivation A549 Cells GRAMMER Emax (%)” value worked out at 130.3% and the pEC50 was 7.78.

As to `C[C@]12Cc3cnn(-c4ccc(F)cc4)c3C=C1CC[C@@]2(CO)CC(O)c1cccc(Cl)c1` (stereo partly drawn) [Example 8, 1-(3-chlorophenyl)-2-[(4αS,5R)-1-(4-fluorophenyl)-5-(hydroxymethyl)-4α-methyl-1,4,4α,5,6,7-hexahydrocyclopenta[f]indazol-5-yl]ethanol], the Emax stood at 56% and the pEC50 was 7.49.

As to `C[C@]12Cc3cnn(-c4ccc(F)cc4)c3C=C1CC[C@@]2(CO)CC(O)c1cccc(C(F)(F)F)c1` (single isomer, unassigned) [Example 7b], the “Transactivation A549 Cells GRAMMER Emax (%)” value stood at 55.8% and the pEC50 was 7.41.

For the compound `COc1ccc(C(O)C[C@]2(CO)CCC3=Cc4c(cnn4-c4ccc(F)cc4)C[C@@]32C)nc1` (single isomer, unassigned) [Example 24a], the Emax was found to be 7.6% and the pEC50 was 6.33.

For `C[C@]12Cc3cnn(-c4cccc(F)c4)c3C=C1CC[C@@]2(CO)CC(O)c1ccccn1` (single isomer, unassigned) [Example 19a], the Emax was 43.7% and the pEC50 is 7.38.

In the case of `Cc1ccc(C(O)C[C@]2(CO)CCC3=Cc4c(cnn4-c4ccc(F)cc4)C[C@@]32C)nc1` (stereo partly drawn) [Example 16, 2-[(4αS,5R)-1-(4-fluorophenyl)-5-(hydroxymethyl)-4α-methyl-1,4,4α,5,6,7-hexahydrocyclopenta[f]indazol-5-yl]-1-(5-methylpyridin-2-yl)ethanol], the Emax was 38.3% and the pEC50 is 7.74.

Take `CC(O)(C[C@]1(CO)CCC2=Cc3c(cnn3-c3ccc(F)cc3)C[C@@]21C)c1cccnc1` (single isomer, unassigned) [Example 25b]: the “Transactivation A549 Cells GRAMMER Emax (%)” value was 7.6% and the pEC50 is 6.40.

As a reminder, the Emax is the maximal effect, on the per cent scale that the assay sets.
